This is an account of results in ChEMBL document CHEMBL5303304, “EUbOPEN Chemogenomics Library - IncuCyte” (2023).

Assay type in all cases: toxicity, cell-based
Series [1] has as its system Fibroblast. Kind of series: Incucyte cell viability with human fibroblast. The note with it: 10 µM, compound concentration 10 uM.
Series [2] concerns HEK-293T. Kind of series: Incucyte cell viability with HEK293T. The note with it: human, 10 µM, compound concentration 10 uM.
Series [3] concerns U2OS. Kind of series: Incucyte cell viability with U2OS. Particulars: human, 10 µM, compound concentration 10 uM.
Further: unitless GR value; below 1 slowed growth and below 0 cell loss.

For `CNS(=O)(=O)c1ccc(N(C)C)c(Nc2ncnc3cc(OC)c(OC)cc23)c1`, the “Growth Rate” value in series [1] (0 h, replicate number 1) was -1; in series [1] (12 h, replicate number 2), 0.32; in series [1] (18 h, replicate number 1), 0.69; in series [1] (18 h, replicate number 2) it was 0.4; in series [1] (24 h, replicate number 1) it was 0.51; in series [1] (24 h, replicate number 2), 0.29. The “Growth Rate” value in series [2] (0 h, replicate number 1) is on record as -0.66; in series [2] (0 h, replicate number 2), 0.17; in series [2] (6 h, replicate number 2), 0.92; in series [2] (12 h, replicate number 2), 0.6; in series [2] (18 h, replicate number 1), 0.88; in series [2] (18 h, replicate number 2) it was 0.42. For the same compound, the “Growth Rate” value is 0.79 in series [2] (24 h, replicate number 1); 0.47 in series [2] (24 h, replicate number 2); -1 in series [3] (0 h, replicate number 1); 0.65 in series [3] (6 h, replicate number 2); 0.84 in series [3] (12 h, replicate number 1); 0.6 in series [3] (12 h, replicate number 2). Also, the “Growth Rate” value in series [3] (18 h, replicate number 1) is listed as 0.85; in series [3] (18 h, replicate number 2) it was 0.39; in series [3] (24 h, replicate number 1) it was 0.8; in series [3] (24 h, replicate number 2), 0.71.

On to `COc1cc(N2CCC(N3CCN(C)CC3)CC2)ccc1Nc1ncc(Cl)c(Nc2ccccc2S(=O)(=O)C(C)C)n1` [TAE-684], for which the “Growth Rate” value is 0.37 in series [1] (6 h, replicate number 1); -0.99 in series [1] (6 h, replicate number 2); -0.98 in series [1] (12 h, replicate number 1); -0.28 in series [1] (12 h, replicate number 2); 0.29 in series [1] (18 h, replicate number 1); -0.21 in series [1] (18 h, replicate number 2). The “Growth Rate” value is given as -0.12 in series [1] (24 h, replicate number 1); -0.32 in series [1] (24 h, replicate number 2); -0.99 in series [2] (6 h, replicate number 1); -0.4 in series [2] (6 h, replicate number 2); -0.93 in series [2] (12 h, replicate number 1); -0.16 in series [2] (12 h, replicate number 2). Moreover, the “Growth Rate” value was -0.8 in series [2] (18 h, replicate number 1); 0.06 in series [2] (18 h, replicate number 2); -0.72 in series [2] (24 h, replicate number 1); 0.17 in series [2] (24 h, replicate number 2); -0.18 in series [3] (0 h, replicate number 2); -0.18 in series [3] (6 h, replicate number 1). The “Growth Rate” value in series [3] (6 h, replicate number 2) is on record as 0.84; in series [3] (12 h, replicate number 1), -0.09; in series [3] (12 h, replicate number 2), 0.29; in series [3] (18 h, replicate number 1), -0.06; in series [3] (18 h, replicate number 2), 0.27; in series [3] (24 h, replicate number 1) it was -0.15. The “Growth Rate” value in series [3] (24 h, replicate number 2) turned out to be 0.07.

Turning to `CNC(=O)c1cccc(-c2ccc3c(N4CCOC[C@@H]4C)nc(N4CCOC[C@@H]4C)nc3n2)c1` [VISTUSERTIB], the “Growth Rate” value is -0.6 in series [1] (0 h, replicate number 2); 0.26 in series [1] (12 h, replicate number 2); 0.78 in series [1] (18 h, replicate number 1); 0.18 in series [1] (18 h, replicate number 2); 0.66 in series [1] (24 h, replicate number 1); 0.33 in series [1] (24 h, replicate number 2). The “Growth Rate” value in series [2] (6 h, replicate number 1) is -0.56; in series [2] (6 h, replicate number 2), -0.82; in series [2] (12 h, replicate number 1), -0.41; in series [2] (12 h, replicate number 2), -0.55; in series [2] (18 h, replicate number 1) it was -0.28; in series [2] (18 h, replicate number 2), -0.39. In addition, the “Growth Rate” value is listed as -0.18 in series [2] (24 h, replicate number 1); -0.28 in series [2] (24 h, replicate number 2); 0.02 in series [3] (0 h, replicate number 1); 0.98 in series [3] (6 h, replicate number 1); 0.93 in series [3] (18 h, replicate number 1); 0.56 in series [3] (24 h, replicate number 1).

For the compound `Cn1c(C2(NC(=O)c3ccc4c(C5CCCC5)c(-c5ncc(Br)cn5)n(C)c4c3)CCC2)nc2ccc(/C=C/C(=O)[O-])cc21.[Na+]` [DELEOBUVIR SODIUM], the “Growth Rate” value in series [1] (0 h, replicate number 2) was -0.22; in series [1] (6 h, replicate number 2), -0.13; in series [2] (0 h, replicate number 1) it was 0.69; in series [2] (0 h, replicate number 2), 0.32; in series [2] (18 h, replicate number 1), 0.92; in series [2] (18 h, replicate number 2), 0.81. The “Growth Rate” value was 0.94 in series [2] (24 h, replicate number 1); 0.8 in series [2] (24 h, replicate number 2); 0.79 in series [3] (12 h, replicate number 2); 0.92 in series [3] (18 h, replicate number 2); 0.93 in series [3] (24 h, replicate number 2).

Consider `O=C(NCC1(N2CCN(c3ccccc3)CC2)CCOCC1)c1cccnc1Sc1ccccc1`, for which the “Growth Rate” value is listed as 0.02 in series [1] (6 h, replicate number 1); -1 in series [1] (12 h, replicate number 1); -0.49 in series [1] (18 h, replicate number 1); 0.97 in series [2] (0 h, replicate number 1); -0.38 in series [2] (0 h, replicate number 2); 0.14 in series [3] (0 h, replicate number 1). The “Growth Rate” value is reported as -0.32 in series [3] (0 h, replicate number 2); 0.97 in series [3] (6 h, replicate number 1); 0.73 in series [3] (6 h, replicate number 2); 0.95 in series [3] (12 h, replicate number 1); 0.86 in series [3] (12 h, replicate number 2); 0.92 in series [3] (18 h, replicate number 2). In series [3] (24 h, replicate number 2), the “Growth Rate” value stood at 0.93.

With `CC/C(=C(\c1ccccc1)c1ccc(OCCN(C)C)cc1)c1ccccc1.O=C(O)CC(O)(CC(=O)O)C(=O)O` [TAMOXIFEN CITRATE], the “Growth Rate” value is recorded as 0.1 in series [1] (6 h, replicate number 1); 0.32 in series [1] (6 h, replicate number 2); -0.13 in series [1] (12 h, replicate number 1); -0.01 in series [1] (12 h, replicate number 2); -0.15 in series [1] (18 h, replicate number 1); -0.19 in series [1] (18 h, replicate number 2). For the same compound, the “Growth Rate” value in series [1] (24 h, replicate number 1) is -0.08; in series [1] (24 h, replicate number 2), -0.21; in series [2] (0 h, replicate number 2), -0.98; in series [2] (6 h, replicate number 1), 0.14; in series [2] (6 h, replicate number 2) it was 0.13; in series [2] (12 h, replicate number 1), 0.4. Moreover, the “Growth Rate” value in series [2] (12 h, replicate number 2) was 0.48; in series [2] (18 h, replicate number 1), 0.48; in series [2] (18 h, replicate number 2) it was 0.45; in series [2] (24 h, replicate number 1) it was 0.56; in series [2] (24 h, replicate number 2), 0.52; in series [3] (0 h, replicate number 1) it was -0.22. In addition, the “Growth Rate” value was found to be 0.89 in series [3] (0 h, replicate number 2); 0.66 in series [3] (6 h, replicate number 1); 1 in series [3] (6 h, replicate number 2); 0.8 in series [3] (12 h, replicate number 1); 0.93 in series [3] (12 h, replicate number 2); 0.84 in series [3] (18 h, replicate number 1). Moreover, the “Growth Rate” value turned out to be 0.88 in series [3] (18 h, replicate number 2); 0.91 in series [3] (24 h, replicate number 1); 0.95 in series [3] (24 h, replicate number 2).

`COc1cc(-c2nn([C@H]3CC[C@H](N4CCN(C(C)=O)CC4)CC3)c3ncnc(N)c23)ccc1NC(=O)c1cc2ccccc2n1C`: the “Growth Rate” value in series [1] (0 h, replicate number 1) is -1; in series [1] (6 h, replicate number 1), -0.52; in series [1] (6 h, replicate number 2), -0.77; in series [1] (12 h, replicate number 1), -0.69; in series [1] (12 h, replicate number 2) it was 0.45; in series [1] (18 h, replicate number 1), -0.56. For the same compound, the “Growth Rate” value in series [1] (24 h, replicate number 1) is listed as -0.45; in series [2] (6 h, replicate number 1), -0.95; in series [2] (6 h, replicate number 2) it was -0.96; in series [2] (12 h, replicate number 1), -0.39; in series [2] (12 h, replicate number 2), -0.18; in series [2] (18 h, replicate number 1), 0.38. Further, the “Growth Rate” value in series [2] (18 h, replicate number 2) is given as 0.59; in series [2] (24 h, replicate number 1), 0.69; in series [2] (24 h, replicate number 2) it was 0.89; in series [3] (0 h, replicate number 1), -0.86; in series [3] (0 h, replicate number 2), 0.2; in series [3] (6 h, replicate number 1), 0.32. Moreover, the “Growth Rate” value in series [3] (6 h, replicate number 2) worked out at 0.56; in series [3] (12 h, replicate number 1), 0.44; in series [3] (12 h, replicate number 2), 0.61; in series [3] (18 h, replicate number 1), 0.44; in series [3] (18 h, replicate number 2) it was 0.95; in series [3] (24 h, replicate number 1) it was 0.44. Besides, the “Growth Rate” value in series [3] (24 h, replicate number 2) came out at 0.91.

Consider `Cc1ccccc1Oc1cc(-n2c(=O)cc(C(F)(F)F)[nH]c2=O)c2ccccc2c1Cl` [BAY-069], for which the “Growth Rate” value is listed as 0.91 in series [1] (0 h, replicate number 1); 0.05 in series [1] (0 h, replicate number 2); 0.84 in series [1] (6 h, replicate number 1); 0.51 in series [1] (12 h, replicate number 1); 0.76 in series [1] (18 h, replicate number 1); 0.75 in series [1] (24 h, replicate number 1). For the same compound, the “Growth Rate” value in series [2] (0 h, replicate number 1) was 0.78; in series [2] (0 h, replicate number 2) it was -0.96; in series [2] (6 h, replicate number 1), 0.59; in series [2] (6 h, replicate number 2), 0.24; in series [2] (12 h, replicate number 1), 0.74; in series [2] (12 h, replicate number 2), 0.38. In addition, the “Growth Rate” value in series [2] (18 h, replicate number 1) is recorded as 0.72; in series [2] (18 h, replicate number 2), 0.39; in series [2] (24 h, replicate number 1) it was 0.64; in series [2] (24 h, replicate number 2) it was 0.45; in series [3] (0 h, replicate number 1), -0.77; in series [3] (0 h, replicate number 2), 0.42. Further, the “Growth Rate” value in series [3] (6 h, replicate number 1) is recorded as 0.02; in series [3] (6 h, replicate number 2), 0.72; in series [3] (12 h, replicate number 1), -0.7; in series [3] (12 h, replicate number 2), 0.77; in series [3] (18 h, replicate number 1), 0.63; in series [3] (18 h, replicate number 2), 0.86. Moreover, the “Growth Rate” value in series [3] (24 h, replicate number 1) was 0.81; in series [3] (24 h, replicate number 2) it was 0.86.

Consider `CCC(=O)O[C@@H](OP(=O)(CCCCc1ccccc1)CC(=O)N1C[C@H](C2CCCCC2)C[C@H]1C(=O)[O-])C(C)C.[Na+]` (some centres undefined), for which the “Growth Rate” value in series [1] (0 h, replicate number 2) is given as -0.2; in series [1] (6 h, replicate number 2), 0.94; in series [1] (12 h, replicate number 1) it was 0.72; in series [2] (0 h, replicate number 2) it was -1; in series [2] (6 h, replicate number 1) it was 0.41; in series [2] (6 h, replicate number 2), -0.23. Moreover, the “Growth Rate” value in series [2] (12 h, replicate number 1) came out at 0.66; in series [2] (12 h, replicate number 2), 0.04; in series [2] (18 h, replicate number 1), 0.77; in series [2] (18 h, replicate number 2), 0.29; in series [2] (24 h, replicate number 1), 0.84; in series [2] (24 h, replicate number 2), 0.49. Moreover, the “Growth Rate” value amounted to 0.02 in series [3] (0 h, replicate number 1); 0.56 in series [3] (6 h, replicate number 1); 0.78 in series [3] (12 h, replicate number 1); 0.78 in series [3] (18 h, replicate number 1); 0.77 in series [3] (24 h, replicate number 1).
